Assay results as given in article PMC10589286, “Insights into the missing apiosylation step in flavonoid apiosides biosynthesis of Leguminosae plants” (Nature Communications, 2023).

Tests used:
GiApiGT = target: T1, GiApiGT (Glycyrrhiza inflata, UniProt A0AA51YKD5); assay: enzyme catalysis, LC/MS; type: biochemical; details: sugar donor supplied by UAXS system; acceptor only in figure
T1 construct: full length, pET-28a(+), E. coli BL21(DE3), nickel-purified
T1 sequence (A0AA51YKD5 1-454): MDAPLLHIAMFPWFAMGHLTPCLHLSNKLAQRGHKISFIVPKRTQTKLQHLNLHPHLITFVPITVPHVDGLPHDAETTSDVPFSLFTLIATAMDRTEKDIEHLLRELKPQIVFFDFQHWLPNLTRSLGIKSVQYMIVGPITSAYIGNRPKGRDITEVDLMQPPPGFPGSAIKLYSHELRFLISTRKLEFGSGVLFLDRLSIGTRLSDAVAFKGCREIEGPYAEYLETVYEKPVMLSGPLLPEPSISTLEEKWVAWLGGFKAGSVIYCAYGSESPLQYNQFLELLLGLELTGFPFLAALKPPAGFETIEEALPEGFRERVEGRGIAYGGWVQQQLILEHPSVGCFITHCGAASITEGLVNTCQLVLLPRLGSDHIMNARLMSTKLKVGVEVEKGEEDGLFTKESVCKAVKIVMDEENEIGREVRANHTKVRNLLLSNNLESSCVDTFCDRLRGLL

SsApiGT = target: T2, SsApiGT (Spatholobus suberectus, UniProt A0AA51YHU4); assay: enzyme catalysis, LC/MS; type: biochemical; details: sugar donor supplied by UAXS system; acceptor only in figure
T2 construct: full length, synthesized gene, pET-28a(+), E. coli BL21(DE3), nickel-purified
T2 sequence (A0AA51YHU4 1-448): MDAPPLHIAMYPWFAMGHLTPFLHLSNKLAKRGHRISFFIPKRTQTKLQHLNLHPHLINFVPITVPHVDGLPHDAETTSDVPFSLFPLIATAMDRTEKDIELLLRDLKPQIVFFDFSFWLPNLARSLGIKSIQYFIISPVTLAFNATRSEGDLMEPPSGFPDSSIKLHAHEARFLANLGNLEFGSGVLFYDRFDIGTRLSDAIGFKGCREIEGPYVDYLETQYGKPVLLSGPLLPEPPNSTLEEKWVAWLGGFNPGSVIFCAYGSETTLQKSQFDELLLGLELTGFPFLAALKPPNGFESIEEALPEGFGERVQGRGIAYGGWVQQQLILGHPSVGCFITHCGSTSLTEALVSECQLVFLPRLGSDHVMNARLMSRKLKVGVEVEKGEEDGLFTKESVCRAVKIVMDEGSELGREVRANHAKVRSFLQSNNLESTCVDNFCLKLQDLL

PtApiGT = target: T3, PtApiGT (Pueraria montana, UniProt A0AA51YHU3); assay: enzyme catalysis, LC/MS; type: biochemical; details: sugar donor supplied by UAXS system; acceptor only in figure
T3 construct: full length, pET-28a(+), E. coli BL21(DE3), nickel-purified
T3 sequence (A0AA51YHU3 1-457): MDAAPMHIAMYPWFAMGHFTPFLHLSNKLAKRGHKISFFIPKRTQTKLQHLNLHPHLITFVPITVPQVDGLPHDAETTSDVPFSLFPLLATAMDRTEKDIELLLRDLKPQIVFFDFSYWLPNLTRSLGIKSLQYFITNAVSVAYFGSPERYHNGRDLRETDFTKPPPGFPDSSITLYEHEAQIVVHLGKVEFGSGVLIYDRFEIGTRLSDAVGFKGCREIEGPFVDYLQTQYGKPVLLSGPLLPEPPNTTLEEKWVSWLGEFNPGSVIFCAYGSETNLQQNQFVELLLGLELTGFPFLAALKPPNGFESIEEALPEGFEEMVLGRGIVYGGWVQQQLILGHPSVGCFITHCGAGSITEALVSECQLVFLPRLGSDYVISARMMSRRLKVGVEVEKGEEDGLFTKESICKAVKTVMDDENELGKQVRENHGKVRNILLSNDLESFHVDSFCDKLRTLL

GgApiGT = target: T4, GgApiGT (Glycyrrhiza glabra, UniProt A0AA51YKR8); assay: enzyme catalysis, LC/MS; type: biochemical; details: sugar donor supplied by UAXS system; acceptor only in figure
T4 construct: full length, pET-28a(+), E. coli BL21(DE3), nickel-purified
T4 sequence (A0AA51YKR8 1-454): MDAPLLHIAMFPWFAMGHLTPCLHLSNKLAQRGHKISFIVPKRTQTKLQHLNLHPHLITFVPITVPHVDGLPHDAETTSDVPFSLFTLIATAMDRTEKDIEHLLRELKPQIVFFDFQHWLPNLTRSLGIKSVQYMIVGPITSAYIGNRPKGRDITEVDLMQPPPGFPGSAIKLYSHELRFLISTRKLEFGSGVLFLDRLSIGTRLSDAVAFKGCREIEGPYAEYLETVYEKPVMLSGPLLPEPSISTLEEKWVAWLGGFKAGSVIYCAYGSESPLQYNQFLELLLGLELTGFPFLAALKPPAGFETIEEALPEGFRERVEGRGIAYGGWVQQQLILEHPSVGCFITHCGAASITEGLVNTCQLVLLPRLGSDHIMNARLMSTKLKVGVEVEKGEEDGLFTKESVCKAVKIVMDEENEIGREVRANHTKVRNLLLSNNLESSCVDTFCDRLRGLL

GuApiGT = target: T5, GuApiGT (Glycyrrhiza uralensis, UniProt A0AA51Z2W4, DEL371-371/H373Q); assay: HPLC/MS conversion; type: biochemical; details: 0.5 mM UDP-Xyl, acceptor isoliquiritin (2) 0.1 mM, pH 8.0, 37 °C, 3 h; printed S371/H373Q (S371 deleted)
T5 construct: full length, 454 aa (ORF 1365 bp), pET-28a(+) His-tagged, E. coli BL21(DE3), nickel-purified

[1] = substrate: O=C(/C=C/c1ccc(O[C@@H]2O[C@H](CO)[C@@H](O)[C@H](O)[C@H]2O)cc1)c1ccc(O)cc1O; assay: HPLC, Michaelis-Menten fit; type: biochemical, Glycyrrhiza uralensis; details: 480 µmol/L saturated UDP-apiose, pH 8.0 phosphate, 37 °C, 15 min

T5 sequence (A0AA51Z2W4 entry or part of it DEL371-371/H373Q): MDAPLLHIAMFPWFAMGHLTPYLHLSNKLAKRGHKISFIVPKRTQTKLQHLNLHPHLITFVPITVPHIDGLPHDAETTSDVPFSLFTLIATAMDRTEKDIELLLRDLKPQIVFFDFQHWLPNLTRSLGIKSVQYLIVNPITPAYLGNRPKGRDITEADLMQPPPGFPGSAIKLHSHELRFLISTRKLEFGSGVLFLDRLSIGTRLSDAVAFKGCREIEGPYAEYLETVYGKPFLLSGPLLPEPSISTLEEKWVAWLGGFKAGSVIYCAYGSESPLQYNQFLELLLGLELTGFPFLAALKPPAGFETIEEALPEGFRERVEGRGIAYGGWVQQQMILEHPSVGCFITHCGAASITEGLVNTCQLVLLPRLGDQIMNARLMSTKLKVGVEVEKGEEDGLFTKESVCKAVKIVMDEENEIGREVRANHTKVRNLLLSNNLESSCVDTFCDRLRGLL

O=c1ccn([C@@H]2O[C@H](COP(=O)(O)OP(=O)(O)O[C@H]3OC[C@](O)(CO)[C@H]3O)[C@@H](O)[C@H]2O)c(=O)[nH]1 [UDP-Api] was tested, and the “enzyme catalysis, LC/MS” value (GiApiGT) was “identified them as apiosyltransferases by enzyme catalysis reactions”, the “enzyme catalysis, LC/MS” value (SsApiGT) was “identified them as apiosyltransferases by enzyme catalysis reactions” and the “enzyme catalysis, LC/MS” value (PtApiGT) was “identified them as apiosyltransferases by enzyme catalysis reactions”. The “enzyme catalysis, LC/MS” value (GgApiGT) was “identified them as apiosyltransferases by enzyme catalysis reactions”.

For O=c1ccn([C@@H]2O[C@H](COP(=O)(O)OP(=O)(O)O[C@H]3OC[C@@H](O)[C@H](O)[C@H]3O)[C@@H](O)[C@H]2O)c(=O)[nH]1 [UDP-Xyl], the HPLC/MS conversion (GuApiGT) was “the S371/H373Q mutant could accept UDP-Xyl as sugar donor”.

B1: GuApiGT (Glycyrrhiza uralensis) (protein)
chain: MDAPLLHIAMFPWFAMGHLTPYLHLSNKLAKRGHKISFIVPKRTQTKLQHLNLHPHLITFVPITVPHIDGLPHDAETTSDVPFSLFTLIATAMDRTEKDIELLLRDLKPQIVFFDFQHWLPNLTRSLGIKSVQYLIVNPITPAYLGNRPKGRDITEADLMQPPPGFPGSAIKLHSHELRFLISTRKLEFGSGVLFLDRLSIGTRLSDAVAFKGCREIEGPYAEYLETVYGKPFLLSGPLLPEPSISTLEEKWVAWLGGFKAGSVIYCAYGSESPLQYNQFLELLLGLELTGFPFLAALKPPAGFETIEEALPEGFRERVEGRGIAYGGWVQQQMILEHPSVGCFITHCGAASITEGLVNTCQLVLLPRLGSDHIMNARLMSTKLKVGVEVEKGEEDGLFTKESVCKAVKIVMDEENEIGREVRANHTKVRNLLLSNNLESSCVDTFCDRLRGLL
notes: full length, 454 aa (ORF 1365 bp), pET-28a(+) His-tagged, E. coli BL21(DE3), nickel-purified
B1 was tested, and the Km [1] was 2.59 ± 0.23 µmol/L and the kcat [1] was 0.11 s⁻¹.
